Assay results reported in ChEMBL document CHEMBL1135160, “Development of a genetic selection for catalytic antibodies” (Bioorg Med Chem Lett, 2002).

Legend:
[1] = Kinetic parameter for rate of conversion to PABA was determined; type: ADME
Escherichia coli = assay: Concentration required to sustain growth of Escherichia coli HDU-78; 1-10 nM; type: functional, organism-based

SMILES	Km [1] [µM]	k cat [1] [s⁻¹]	Concentration (Escherichia coli) [nM]
CC(=O)CC(C)(O)CCOC(=O)Nc1ccc(C(=O)O)cc1 (stereo not drawn)	150	0.000115	–
Nc1ccc(C(=O)O)cc1	–	–	10
